Measurements: ChEMBL document CHEMBL1126897, “Tyrphostins. 3. Structure-activity relationship studies of alpha-substituted benzylidenemalononitrile 5-S-aryltyrphostins” (J Med Chem, 1993)
pIC50: −log10 of the molar value.

Columns and labels:
[1] = molecular target: T1, Epidermal growth factor receptor (Homo sapiens, UniProt P00533); assay: Inhibitory concentration against EGF receptor by autophosphorylation
[2] = molecular target: T1, Epidermal growth factor receptor; assay: Inhibitory concentration against EGF receptor by polyGAT phosphorylation
[3] = molecular target: T1, Epidermal growth factor receptor; assay: Inhibition of polyGAT phosphorylation by EGF receptor

T1 sequence (P00533 whole entry): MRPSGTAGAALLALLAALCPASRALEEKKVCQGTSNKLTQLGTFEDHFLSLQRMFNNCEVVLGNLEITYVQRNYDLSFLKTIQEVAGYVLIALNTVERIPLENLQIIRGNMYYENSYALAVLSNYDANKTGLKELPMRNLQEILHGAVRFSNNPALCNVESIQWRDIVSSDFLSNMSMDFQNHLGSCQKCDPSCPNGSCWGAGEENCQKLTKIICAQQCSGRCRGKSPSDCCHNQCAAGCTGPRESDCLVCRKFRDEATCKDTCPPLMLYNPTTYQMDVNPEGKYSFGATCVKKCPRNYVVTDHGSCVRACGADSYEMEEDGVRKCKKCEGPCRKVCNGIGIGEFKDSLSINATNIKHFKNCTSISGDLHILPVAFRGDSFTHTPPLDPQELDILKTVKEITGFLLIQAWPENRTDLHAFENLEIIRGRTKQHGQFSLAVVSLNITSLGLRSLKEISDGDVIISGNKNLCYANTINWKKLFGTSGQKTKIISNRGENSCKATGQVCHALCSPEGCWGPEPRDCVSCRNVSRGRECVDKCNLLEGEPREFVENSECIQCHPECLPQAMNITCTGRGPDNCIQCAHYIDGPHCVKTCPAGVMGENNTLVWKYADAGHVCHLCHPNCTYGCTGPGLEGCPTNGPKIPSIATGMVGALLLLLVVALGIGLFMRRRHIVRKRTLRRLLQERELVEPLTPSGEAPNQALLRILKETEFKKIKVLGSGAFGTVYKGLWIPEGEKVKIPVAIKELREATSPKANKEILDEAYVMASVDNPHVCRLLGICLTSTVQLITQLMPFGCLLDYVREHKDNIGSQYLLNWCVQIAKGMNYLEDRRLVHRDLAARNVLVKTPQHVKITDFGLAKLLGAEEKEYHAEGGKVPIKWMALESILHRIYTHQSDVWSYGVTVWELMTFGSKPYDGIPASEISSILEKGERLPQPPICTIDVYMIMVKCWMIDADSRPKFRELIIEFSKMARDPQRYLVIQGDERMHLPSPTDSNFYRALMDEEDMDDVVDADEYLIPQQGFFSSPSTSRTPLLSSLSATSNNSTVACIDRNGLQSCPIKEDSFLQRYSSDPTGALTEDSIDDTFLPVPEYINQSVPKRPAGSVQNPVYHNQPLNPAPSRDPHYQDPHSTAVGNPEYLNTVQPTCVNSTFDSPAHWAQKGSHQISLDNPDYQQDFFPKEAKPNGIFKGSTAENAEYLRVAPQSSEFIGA

SMILES | pIC50 [1] | pIC50 [2] | pIC50 [3]
COc1cc(/C=C(\C#N)C(N)=O)cc(CSc2nc3cc(Cl)ccc3s2)c1O | < 4.08 | 5.36 | –
Cc1cc(C=C(C#N)C#N)cc(O)c1O | 4.21 | 5.25 | –
COc1cc(/C=C(\C#N)C(N)=O)cc(CSc2ccccn2)c1O | 5.47 | 4.60 | –
COc1cc(/C=C(\C#N)C(N)=O)cc(CSc2ccccc2NC(C)=O)c1O | 4.66 | 5.25 | –
COc1cc(/C=C(\C#N)C(N)=O)cc(CSCc2ccccc2)c1O | 6.05 | 5.71 | –
COc1cc(/C=C(\C#N)C(N)=O)cc(CSc2nc3ccccc3[nH]2)c1O | 4.84 | 4.12 | –
COc1cc(C=C(C#N)C#N)cc(CSc2ccccc2)c1O | 5.17 | 3.43 | –
COc1cc(/C=C(\C#N)C(=O)c2ccc(O)c(O)c2)cc(CSCc2ccccc2)c1O | 5.35 | 6.12 | –
COc1cc(/C=C(\C#N)C(N)=O)cc(CSCc2ccc(Cl)cc2)c1O | 4.80 | 4.83 | –
COc1cc(/C=C(\C#N)C(N)=O)cc(CSc2nc3ccccc3o2)c1O | 5.28 | 4.90 | –
COc1cc(C=C(C#N)C#N)cc(C)c1O | 4.06 | 2.59 | –
COc1cc(C=C(C#N)C#N)cc(CSc2ccccc2C(=O)O)c1O | 5.10 | 4.44 | –
COc1cc(/C=C(\C#N)C(N)=O)cc(CSc2ccccc2C(=O)O)c1O | 6.15 | 4.43 | –
COc1cc(/C=C(\C#N)C(N)=O)cc(CSc2ccccc2)c1O | 6.40 | 5.54 | –
N#C/C(=C\c1cc(O)c(O)c(CSCc2ccccc2)c1)C(N)=O | 6.19 | 6.03 | –
COc1cc(/C=C(\C#N)C(N)=O)cc(CSc2ccc3ccccc3c2)c1O | 5.77 | 5.18 | –
COc1cc(C=C(C#N)C#N)cc(CSCC(=O)O)c1O | 4.27 | 4.02 | –
CCOc1ccc2nc(SCc3cc(/C=C(\C#N)C(N)=O)cc(OC)c3O)sc2c1 | < 3.78 | – | < 4.00
COc1cc(/C=C(\C#N)C(N)=O)cc(CSCc2ccccc2Cl)c1O | 6.00 | 5.60 | –
COc1cc(/C=C(\C#N)C(N)=O)cc(CSc2ccc(O)cc2)c1O | 5.60 | 5.60 | –
COc1cc(C=C(C#N)C#N)cc(CS(=O)(=O)c2ccc(C)cc2)c1O | 4.64 | 4.07 | –
COc1cc(/C=C(\C#N)C(N)=O)cc(CSCCC(=O)O)c1O | – | – | 3.90
N#C/C(=C\c1cc(O)c(O)c(CSc2nc3ccccc3s2)c1)C(N)=O | 5.49 | 5.19 | –
